# Experimental data as given in patent US9211310B2, “Use of a Chinese medicine composition in preparing medicaments for treating secondary prevention of myocardial infarction” (TASLY PHARMACEUTICAL GROUP CO., LTD, priority 2010, dated 2015).
# Tested on: patients after acute myocardial infarction
# Assay: TCM symptom score, total and single (chest pain, chest tightness, short breath, fatigue, palpitation, spontaneous perspiration, pale complexion), same clinical trial
# Format: in vivo, human
# Design: total score of TCM symptom, Mean / total score of TCM symptom, Min / total score of TCM symptom, Max / total score of TCM symptom, Md / change of total score of TCM symptom, Mean / change of total score of TCM symptom, Max / change of total score of TCM symptom, Md: scale not given here
# Details: FAS
# From the text: 3508 patients who were in accordance with the diagnostic standards of AMI for 28 days to 2 years and differentiated as Qi deficiency and blood stagnation syndrome by TCM were studied. 0.5 g Chinese medicine composition prepared by the method of EXAMPLE 1 (Coded as QSYQ) was administrated half an hour after meal, 3 times per day.
# They included the overall survival time, angina pectoris score, TCM symptom score and life quality score, where angina pectoris score, TCM symptom score and life quality score were evaluated at randomization, in 1st, 3rd, 6th, 9th, 12th month after treatment and 18th month after follow-up.
# The analysis method referred to the angina pectoris score.
# [1] = 3 months after treatment-baseline
# [2] = 6 months after treatment-baseline
smiles,measurement,setting,value
"CC(=O)Oc1ccccc1C(=O)O [Control group, aspirine]","total score of TCM symptom, Md",3 months after treatment,10.00
same,"total score of TCM symptom, Mean",3 months after treatment,10.90
same,"total score of TCM symptom, Min",3 months after treatment,0.00
same,"change of fatigue 0, % of patients",[1],(64.74%)
same,"change of fatigue 0, number of patients",[1],1107
same,"change of fatigue 2, % of patients",[1],(24.56%)
same,"change of fatigue 2, number of patients",[1],420
same,"change of fatigue 4, % of patients",[1],(4.09%)
same,"change of fatigue 4, number of patients",[1],70
same,"change of fatigue 6, % of patients",[1],(0.94%)
same,"change of fatigue 6, number of patients",[1],16
same,"change of fatigue −2, % of patients",[1],(5.03%)
same,"change of fatigue −2, number of patients",[1],86
same,"change of fatigue −4, % of patients",[1],(0.53%)
same,"change of fatigue −4, number of patients",[1],9
same,"change of fatigue −6, % of patients",[1],(0.12%)
same,"change of fatigue −6, number of patients",[1],2
same,"change of pale complexion 0, number of patients",[1],1387
same,"change of pale complexion 0, percent of patients",[1],(81.21%)
same,"change of pale complexion 1, number of patients",[1],259
same,"change of pale complexion 1, percent of patients",[1],(15.16%)
same,"change of pale complexion −1, number of patients",[1],62
same,"change of pale complexion −1, percent of patients",[1],(3.63%)
same,"change of palpitation 0, number of patients",[1],1125
same,"change of palpitation 0, percent of patients",[1],(65.79%)
same,"change of palpitation 1, number of patients",[1],415
same,"change of palpitation 1, percent of patients",[1],(24.27%)
same,"change of palpitation 2, number of patients",[1],43
same,"change of palpitation 2, percent of patients",[1],(2.51%)
same,"change of palpitation 3, number of patients",[1],6
same,"change of palpitation 3, percent of patients",[1],(0.35%)
same,"change of palpitation −1, percent of patients",[1],(6.96%)
same,"change of palpitation −2, number of patients",[1],2
same,"change of palpitation −2, percent of patients",[1],(0.12%)
same,"change of palpitation −3, number of patients",[1],0
same,"change of palpitation −3, percent of patients",[1],(0.00%)
same,"change of short breath 0, % of patients",[1],(71.29%)
same,"change of short breath 0, number of patients",[1],1219
same,"change of short breath 2, % of patients",[1],(20.47%)
same,"change of short breath 2, number of patients",[1],350
same,"change of short breath 4, % of patients",[1],(2.16%)
same,"change of short breath 4, number of patients",[1],37
same,"change of short breath 6, % of patients",[1],(0.53%)
same,"change of short breath 6, number of patients",[1],9
same,"change of short breath −2, % of patients",[1],(5.44%)
same,"change of short breath −2, number of patients",[1],93
same,"change of short breath −4, % of patients",[1],(0.12%)
same,"change of short breath −4, number of patients",[1],2
same,"change of short breath −6, % of patients",[1],(0.00%)
same,"change of short breath −6, number of patients",[1],0
same,"change of spontaneous perspiration 0, number of patients",[1],1083
same,"change of spontaneous perspiration 0, percent of patients",[1],(63.37%)
same,"change of spontaneous perspiration 1, number of patients",[1],392
same,"change of spontaneous perspiration 1, percent of patients",[1],(22.94%)
same,"change of spontaneous perspiration 2, number of patients",[1],76
same,"change of spontaneous perspiration 2, percent of patients",[1],(4.45%)
same,"change of spontaneous perspiration 3, number of patients",[1],20
same,"change of spontaneous perspiration 3, percent of patients",[1],(1.17%)
same,"change of spontaneous perspiration −1, percent of patients",[1],(7.08%)
same,"change of spontaneous perspiration −2, number of patients",[1],15
same,"change of spontaneous perspiration −2, percent of patients",[1],(0.88%)
same,"change of spontaneous perspiration −3, number of patients",[1],2
same,"change of spontaneous perspiration −3, percent of patients",[1],(0.12%)
same,"distribution of total score of TCM symptom: Medium, number of patients",6 months after treatment,418
same,"distribution of total score of TCM symptom: Medium, percentage of patients",6 months after treatment,(26.79%)
same,"distribution of total score of TCM symptom: Mild, number of patients",6 months after treatment,1133
same,"distribution of total score of TCM symptom: Mild, percentage of patients",6 months after treatment,(72.63%)
same,"distribution of total score of TCM symptom: Severe, number of patients",6 months after treatment,9
same,"distribution of total score of TCM symptom: Severe, percentage of patients",6 months after treatment,(0.58%)
same,"fatigue score 0, % of patients",6 months after treatment,(30.27%)
same,"fatigue score 0, number of patients",6 months after treatment,520
same,"fatigue score 2, % of patients",6 months after treatment,(61.00%)
same,"fatigue score 2, number of patients",6 months after treatment,1048
same,"fatigue score 4, % of patients",6 months after treatment,(7.86%)
same,"fatigue score 4, number of patients",6 months after treatment,135
same,"fatigue score 6, % of patients",6 months after treatment,(0.87%)
same,"fatigue score 6, number of patients",6 months after treatment,15
same,"pale complexion score 0, number of patients",6 months after treatment,871
same,"pale complexion score 0, percent of patients",6 months after treatment,(50.70%)
same,"pale complexion score 1, number of patients",6 months after treatment,657
same,"pale complexion score 1, percent of patients",6 months after treatment,(38.24%)
same,"pale complexion score 2, number of patients",6 months after treatment,179
same,"pale complexion score 2, percent of patients",6 months after treatment,(10.42%)
same,"pale complexion score 3, number of patients",6 months after treatment,11
same,"pale complexion score 3, percent of patients",6 months after treatment,(0.64%)
same,"palpitation score 0, number of patients",6 months after treatment,538
same,"palpitation score 0, percent of patients",6 months after treatment,(31.32%)
same,"palpitation score 2, number of patients",6 months after treatment,906
same,"palpitation score 2, percent of patients",6 months after treatment,(52.74%)
same,"palpitation score 4, number of patients",6 months after treatment,246
same,"palpitation score 4, percent of patients",6 months after treatment,(14.32%)
same,"palpitation score 6, number of patients",6 months after treatment,28
same,"palpitation score 6, percent of patients",6 months after treatment,(1.63%)
same,"short breath score 0, % of patients",6 months after treatment,(25.03%)
same,"short breath score 0, number of patients",6 months after treatment,430
same,"short breath score 2, % of patients",6 months after treatment,(0.06%)
same,"short breath score 2, number of patients",6 months after treatment,1
same,"short breath score 3, % of patients",6 months after treatment,(58.09%)
same,"short breath score 3, number of patients",6 months after treatment,998
same,"short breath score 6, % of patients",6 months after treatment,(16.30%)
same,"short breath score 6, number of patients",6 months after treatment,280
same,"short breath score 9, % of patients",6 months after treatment,(0.52%)
same,"short breath score 9, number of patients",6 months after treatment,9
same,"spontaneous perspiration score 0, number of patients",6 months after treatment,728
same,"spontaneous perspiration score 0, percent of patients",6 months after treatment,(42.37%)
same,"spontaneous perspiration score 1, number of patients",6 months after treatment,833
same,"spontaneous perspiration score 1, percent of patients",6 months after treatment,(48.49%)
same,"spontaneous perspiration score 2, number of patients",6 months after treatment,144
same,"spontaneous perspiration score 2, percent of patients",6 months after treatment,(8.38%)
same,"spontaneous perspiration score 3, number of patients",6 months after treatment,13
same,"spontaneous perspiration score 3, percent of patients",6 months after treatment,(0.76%)
same,"total score of TCM symptom, Max",6 months after treatment,34.00
same,"total score of TCM symptom, Md",6 months after treatment,9.00
same,"total score of TCM symptom, Mean",6 months after treatment,10.04
same,"total score of TCM symptom, Min",6 months after treatment,0.00
same,"change of fatigue 0, % of patients",[2],(56.96%)
same,"change of fatigue 0, number of patients",[2],974
same,"change of fatigue 2, % of patients",[2],(28.54%)
same,"change of fatigue 2, number of patients",[2],488
same,"change of fatigue 4, % of patients",[2],(6.43%)
same,"change of fatigue 4, number of patients",[2],110
same,"change of fatigue 6, % of patients",[2],(1.05%)
same,"change of fatigue 6, number of patients",[2],18
same,"change of fatigue −2, % of patients",[2],(6.32%)
